The source made the active and inactive calls.
Assays:
fMet-Leu-Phe receptor = target: T1, fMet-Leu-Phe receptor (Homo sapiens, UniProt P21462); test: FPR ligands, dose response (AID 519); assay type: functional
T1 sequence (P21462 whole entry): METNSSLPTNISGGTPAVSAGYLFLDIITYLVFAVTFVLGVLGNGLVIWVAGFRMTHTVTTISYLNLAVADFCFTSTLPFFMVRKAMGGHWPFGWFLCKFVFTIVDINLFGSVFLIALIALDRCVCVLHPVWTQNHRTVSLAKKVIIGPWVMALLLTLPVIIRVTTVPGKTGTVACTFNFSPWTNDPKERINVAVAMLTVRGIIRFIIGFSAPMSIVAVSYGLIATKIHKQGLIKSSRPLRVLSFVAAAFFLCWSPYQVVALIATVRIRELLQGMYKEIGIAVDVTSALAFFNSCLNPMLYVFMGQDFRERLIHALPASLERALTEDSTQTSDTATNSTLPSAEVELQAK

Fatty acid synthase [1] = target: T2, Fatty acid synthase (Homo sapiens, UniProt P49327); test: FAS thioesterase domain inhibitors, dose response, biochemical, endpoint fluorescence intensity, uHTS hits (AID 624327); assay type: functional;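 note: fluorescence from hydrolysis of an O-methyl fluorescein acyl ester substrate by the enzyme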
[2] = HEp-2 cell cytotoxicity, dose response, cytotoxicity control for RSV inhibitor project, HTS (AID 2410); assay type: functional; conditions: human respiratory syncytial virus
Fatty acid synthase [3] = target: T2, Fatty acid synthase; test: FAS thioesterase domain inhibitors, dose response, biochemical, kinetic fluorescence intensity (AID 624326); assay type: functional;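 note: rate of fluorescence rise from hydrolysis of a fluorogenic O-methyl fluorescein ester substrate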
[4] = target: Heat shock protein HSP 90-alpha (Homo sapiens, UniProt P07900); assay type: functional, organism-based
[5] = target: Dual specificity tyrosine-phosphorylation-regulated kinase 1A (Rattus norvegicus, UniProt Q63470); assay type: biochemical, Homo sapiens
[6] = target: T3, Histone-lysine N-methyltransferase NSD2 (Homo sapiens, UniProt O96028); assay type: biochemical
T3 sequence (O96028 whole entry): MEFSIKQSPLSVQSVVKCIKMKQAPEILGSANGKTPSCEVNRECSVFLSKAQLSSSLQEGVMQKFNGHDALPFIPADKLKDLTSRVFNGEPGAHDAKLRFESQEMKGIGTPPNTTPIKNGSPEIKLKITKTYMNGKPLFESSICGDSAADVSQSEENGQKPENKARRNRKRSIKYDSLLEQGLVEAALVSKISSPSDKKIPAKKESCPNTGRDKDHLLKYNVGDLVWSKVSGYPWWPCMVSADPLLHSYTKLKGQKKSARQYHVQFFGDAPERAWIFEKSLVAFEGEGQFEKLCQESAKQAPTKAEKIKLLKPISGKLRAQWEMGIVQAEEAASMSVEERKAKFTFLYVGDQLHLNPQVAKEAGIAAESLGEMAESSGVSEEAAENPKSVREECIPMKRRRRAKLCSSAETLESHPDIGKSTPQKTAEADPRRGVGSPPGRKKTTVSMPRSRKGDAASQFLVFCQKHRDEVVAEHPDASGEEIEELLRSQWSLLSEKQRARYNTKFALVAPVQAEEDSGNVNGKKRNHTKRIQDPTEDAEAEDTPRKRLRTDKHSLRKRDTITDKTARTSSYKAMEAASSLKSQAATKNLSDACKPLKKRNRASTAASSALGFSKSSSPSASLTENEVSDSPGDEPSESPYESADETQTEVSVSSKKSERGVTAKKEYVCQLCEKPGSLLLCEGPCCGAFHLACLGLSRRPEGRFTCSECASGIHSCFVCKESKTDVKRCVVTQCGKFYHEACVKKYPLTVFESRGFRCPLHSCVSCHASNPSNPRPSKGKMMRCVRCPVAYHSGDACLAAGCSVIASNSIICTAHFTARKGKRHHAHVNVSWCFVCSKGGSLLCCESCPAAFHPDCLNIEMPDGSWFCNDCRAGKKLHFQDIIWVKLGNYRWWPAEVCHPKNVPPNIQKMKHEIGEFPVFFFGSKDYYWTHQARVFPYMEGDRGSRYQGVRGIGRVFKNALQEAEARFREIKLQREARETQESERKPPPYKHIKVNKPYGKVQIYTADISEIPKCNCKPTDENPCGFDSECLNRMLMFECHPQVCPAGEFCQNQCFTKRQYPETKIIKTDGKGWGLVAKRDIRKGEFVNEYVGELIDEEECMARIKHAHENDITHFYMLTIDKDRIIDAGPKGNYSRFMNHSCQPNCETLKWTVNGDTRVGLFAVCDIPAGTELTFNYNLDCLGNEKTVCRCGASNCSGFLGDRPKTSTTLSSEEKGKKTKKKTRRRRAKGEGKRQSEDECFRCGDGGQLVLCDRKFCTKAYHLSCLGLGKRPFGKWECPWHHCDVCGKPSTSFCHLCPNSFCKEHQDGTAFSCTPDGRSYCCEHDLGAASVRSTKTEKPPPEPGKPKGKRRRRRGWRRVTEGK

[7] = target: T4, Tyrosyl-DNA phosphodiesterase 2 (Homo sapiens, UniProt O95551); test: human TDP2 enzyme inhibitors, dose response, biochemical, epi absorbance, IC50 (AID 743297)
T4 sequence (O95551 whole entry): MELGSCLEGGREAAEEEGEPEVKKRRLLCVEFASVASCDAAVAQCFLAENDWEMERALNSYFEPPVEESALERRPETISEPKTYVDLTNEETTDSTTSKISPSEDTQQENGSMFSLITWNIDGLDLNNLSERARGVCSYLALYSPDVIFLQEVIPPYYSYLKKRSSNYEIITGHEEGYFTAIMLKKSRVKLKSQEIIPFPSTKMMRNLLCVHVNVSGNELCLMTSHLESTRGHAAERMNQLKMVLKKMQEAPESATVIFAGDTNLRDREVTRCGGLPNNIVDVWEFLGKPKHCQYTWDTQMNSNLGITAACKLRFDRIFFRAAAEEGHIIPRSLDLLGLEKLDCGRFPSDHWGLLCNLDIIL

Paired box protein Pax-8 = Paired box protein Pax-8 (Homo sapiens, UniProt Q06710); test: inhibitors of PAX8-driven TPO luciferase reporter, dose response, RMG-I cells, cherry-pick (AID 687027); assay type: functional, cell-based;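 note: luciferase reporter driven by Pax8 target thyroperoxidase promoter measured by SteadyGlo luminescence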
Kallikrein-7 = Kallikrein-7 (Homo sapiens, UniProt P49862); test: Fluorescence Intensity-based biochemical primary high throughput dose response assay to identify activators of kallikrein-7 (K7) zymogen.
[8] = P. falciparum 3D7-ScDHODH growth inhibitors, dose response, SYBR Green, dry powder samples (AID 1159570); assay type: functional, cell-based;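 note: parasite growth measured after 72 hours of compound exposure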
[9] = P. falciparum Dd2 growth inhibitors, dose response, SYBR Green, cherry-picked samples (AID 1159567); assay type: functional, cell-based
[10] = P. falciparum ATP4 D1247Y mutant growth inhibitors, dose response, NITD609-resistant line, SYBR Green, dry powder (AID 1159571); assay type: functional, cell-based;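 note: parasites synchronized at ring stage by sorbitol before testing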
[11] = P. falciparum Dd2 growth inhibitors, dose response, SYBR Green, dry powder samples (AID 1159566); assay type: functional, cell-based;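 note: potency for growth inhibition with lower SYBR green DNA signal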
[12] = LGR2 antagonists, dose response, cell-based, HEK293, CRE-luciferase reporter, cherry pick, set 2 (AID 743343); assay type: functional;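 note: transfected cells were stimulated with diluted bursicon conditioned medium after compound addition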
[13] = HepG2 cell cytotoxicity, dose response, cytotoxicity control, plate reader, cherry-pick, antagonist series (AID 743416); assay type: functional, cell-based
[14] = MC4R antagonists, dose response, counter-screen for LGR2 antagonist project, cell-based, plate reader, cherry pick (AID 743444); assay type: functional;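 note: transfected HEK 293 cells stimulated with alpha-MSH peptide; potency of inhibitors of the alpha-MSH evoked signal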
[15] = HEK293 cell cytotoxicity, dose response, cytotoxicity control, plate reader, cherry-picked samples (AID 743446); assay type: functional, cell-based

T2 sequence (P49327 whole entry, the tested form may be a part): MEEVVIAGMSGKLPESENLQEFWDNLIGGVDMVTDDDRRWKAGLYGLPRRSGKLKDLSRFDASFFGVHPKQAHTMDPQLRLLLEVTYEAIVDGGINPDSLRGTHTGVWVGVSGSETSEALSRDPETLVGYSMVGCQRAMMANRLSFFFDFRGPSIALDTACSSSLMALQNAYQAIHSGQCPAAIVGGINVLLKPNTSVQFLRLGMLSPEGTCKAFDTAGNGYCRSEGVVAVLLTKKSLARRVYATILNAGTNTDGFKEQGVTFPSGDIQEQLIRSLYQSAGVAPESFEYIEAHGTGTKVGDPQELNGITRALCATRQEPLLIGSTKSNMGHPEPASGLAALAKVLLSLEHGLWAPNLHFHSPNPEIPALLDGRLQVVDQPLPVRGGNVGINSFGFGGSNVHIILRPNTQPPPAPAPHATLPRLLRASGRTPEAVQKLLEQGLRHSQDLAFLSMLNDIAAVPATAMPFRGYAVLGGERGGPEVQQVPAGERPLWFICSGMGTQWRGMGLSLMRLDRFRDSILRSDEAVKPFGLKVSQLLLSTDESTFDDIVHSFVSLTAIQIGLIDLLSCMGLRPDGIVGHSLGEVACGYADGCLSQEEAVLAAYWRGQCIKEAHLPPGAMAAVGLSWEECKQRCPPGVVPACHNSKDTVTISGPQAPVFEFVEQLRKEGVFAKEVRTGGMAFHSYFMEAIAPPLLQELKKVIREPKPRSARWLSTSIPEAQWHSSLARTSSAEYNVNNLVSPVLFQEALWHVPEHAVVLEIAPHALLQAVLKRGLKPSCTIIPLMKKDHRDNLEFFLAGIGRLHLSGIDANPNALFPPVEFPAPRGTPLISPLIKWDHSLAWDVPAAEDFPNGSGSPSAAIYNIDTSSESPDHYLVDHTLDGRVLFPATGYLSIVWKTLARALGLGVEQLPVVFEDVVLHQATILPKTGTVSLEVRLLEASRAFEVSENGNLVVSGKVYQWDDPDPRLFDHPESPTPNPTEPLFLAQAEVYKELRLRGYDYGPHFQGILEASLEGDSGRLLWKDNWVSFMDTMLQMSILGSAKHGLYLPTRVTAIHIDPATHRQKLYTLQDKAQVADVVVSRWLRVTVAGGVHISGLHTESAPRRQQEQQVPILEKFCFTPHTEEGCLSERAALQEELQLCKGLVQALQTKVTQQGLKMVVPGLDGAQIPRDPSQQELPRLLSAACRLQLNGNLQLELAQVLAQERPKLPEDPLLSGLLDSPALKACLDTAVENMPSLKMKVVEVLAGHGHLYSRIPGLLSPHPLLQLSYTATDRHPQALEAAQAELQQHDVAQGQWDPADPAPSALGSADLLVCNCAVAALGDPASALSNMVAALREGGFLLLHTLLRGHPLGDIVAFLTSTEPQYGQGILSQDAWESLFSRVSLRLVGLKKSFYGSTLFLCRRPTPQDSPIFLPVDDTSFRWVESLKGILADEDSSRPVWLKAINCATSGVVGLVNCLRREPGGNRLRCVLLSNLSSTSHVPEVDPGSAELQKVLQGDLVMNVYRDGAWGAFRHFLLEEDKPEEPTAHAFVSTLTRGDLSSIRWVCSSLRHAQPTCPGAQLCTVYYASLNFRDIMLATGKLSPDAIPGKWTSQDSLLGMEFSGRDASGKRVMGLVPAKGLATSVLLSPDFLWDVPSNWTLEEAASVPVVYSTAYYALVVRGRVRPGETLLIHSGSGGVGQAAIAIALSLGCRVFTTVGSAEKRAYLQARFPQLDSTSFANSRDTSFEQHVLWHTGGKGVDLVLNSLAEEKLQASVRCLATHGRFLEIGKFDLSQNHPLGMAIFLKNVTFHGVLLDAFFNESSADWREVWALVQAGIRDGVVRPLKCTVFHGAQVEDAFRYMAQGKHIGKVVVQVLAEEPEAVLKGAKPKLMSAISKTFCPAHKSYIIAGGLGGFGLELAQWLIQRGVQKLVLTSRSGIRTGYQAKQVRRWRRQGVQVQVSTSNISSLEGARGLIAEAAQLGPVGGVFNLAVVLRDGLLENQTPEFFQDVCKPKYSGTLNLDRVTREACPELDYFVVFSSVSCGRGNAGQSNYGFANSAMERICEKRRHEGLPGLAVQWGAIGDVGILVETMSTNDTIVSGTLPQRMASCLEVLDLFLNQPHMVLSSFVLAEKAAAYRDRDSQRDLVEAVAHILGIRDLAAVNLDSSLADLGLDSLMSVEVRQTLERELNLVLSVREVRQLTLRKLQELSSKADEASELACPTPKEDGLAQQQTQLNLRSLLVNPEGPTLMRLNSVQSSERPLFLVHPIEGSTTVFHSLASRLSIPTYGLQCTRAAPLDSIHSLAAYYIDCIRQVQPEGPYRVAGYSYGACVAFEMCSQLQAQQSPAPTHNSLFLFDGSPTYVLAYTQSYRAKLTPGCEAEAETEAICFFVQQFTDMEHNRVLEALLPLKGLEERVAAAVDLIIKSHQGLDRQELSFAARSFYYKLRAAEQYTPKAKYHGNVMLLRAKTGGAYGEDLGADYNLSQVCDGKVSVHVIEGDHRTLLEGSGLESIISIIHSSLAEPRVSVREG
Chain of Kallikrein-7 (P49862 whole entry): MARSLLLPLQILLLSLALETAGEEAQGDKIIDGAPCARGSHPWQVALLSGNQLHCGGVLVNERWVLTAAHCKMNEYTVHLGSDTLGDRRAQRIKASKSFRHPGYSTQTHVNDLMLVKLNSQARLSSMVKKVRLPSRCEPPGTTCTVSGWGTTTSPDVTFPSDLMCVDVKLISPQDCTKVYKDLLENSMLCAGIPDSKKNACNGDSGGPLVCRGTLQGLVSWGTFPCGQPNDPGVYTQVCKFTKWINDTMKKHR
Chain of Paired box protein Pax-8 (Q06710 whole entry): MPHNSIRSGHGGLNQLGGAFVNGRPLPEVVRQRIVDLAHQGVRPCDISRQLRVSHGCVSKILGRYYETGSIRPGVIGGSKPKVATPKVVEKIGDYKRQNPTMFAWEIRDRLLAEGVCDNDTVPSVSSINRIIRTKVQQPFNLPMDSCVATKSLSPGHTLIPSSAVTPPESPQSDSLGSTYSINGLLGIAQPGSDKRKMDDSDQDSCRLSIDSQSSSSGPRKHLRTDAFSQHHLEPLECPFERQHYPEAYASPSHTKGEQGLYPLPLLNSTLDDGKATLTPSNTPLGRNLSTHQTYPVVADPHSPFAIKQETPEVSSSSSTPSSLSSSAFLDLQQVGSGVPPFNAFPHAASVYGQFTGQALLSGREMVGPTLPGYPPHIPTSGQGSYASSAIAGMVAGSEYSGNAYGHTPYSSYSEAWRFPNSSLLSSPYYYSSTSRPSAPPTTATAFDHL

Cc1nc2c(C#N)cnn2c(O)c1Cc1ccccc1
Ki (fMet-Leu-Phe receptor): 27.4 µM (inactive)

CC1Cc2cc(C(=O)C3=C(O)C(=O)N(CCN4CCOCC4)C3c3ccccc3F)ccc2O1 (centres undefined)
Ki (fMet-Leu-Phe receptor): > 66.7 µM (inactive)

O=C(/C=C/c1cccc([N+](=O)[O-])c1)NCCSCc1cccc(Cl)c1
IC50 (Fatty acid synthase [1]): 11.7 µM (active)
CC50 [2]: 14.3 µM (active)
IC50 (Fatty acid synthase [3]): 7.25 µM (active)

Cc1ccc2c(c1C)-c1c(ccc(C)c1C)C(=O)C2=O
AC50 [4]: 2.79 µM (active)
IC50 (Fatty acid synthase [1]): 7.89 µM (active)
IC50 (Fatty acid synthase [3]): 5.23 µM (active)
AC50 [5]: 3.16 µM (active)
AC50 [6]: 0.531 µM (active)
IC50 [7]: 8.67 µM (active)
AC50 (Paired box protein Pax-8): 3.67 µM (active)

CCOC(=O)CSc1nnc(CNC(=O)c2cc(OCC)c(OCC)c(OCC)c2)n1C
Ki (fMet-Leu-Phe receptor): > 66.7 µM (inactive)

CCOC(=O)c1cc2c(=O)n3ccccc3nc2n(CC2CCCO2)/c1=N/C(=O)/C=C/c1ccccc1 (centres undefined)
IC50 (Fatty acid synthase [1]): 2.71 µM (active)
EC50 (Kallikrein-7): > 69.5 µM (inactive)
IC50 (Fatty acid synthase [3]): 3.99 µM (active)

COc1ccc(C#Cc2ccc3c(c2)O[C@H](CN(C)S(=O)(=O)c2ccccc2F)[C@@H](C)CN([C@H](C)CO)S3(=O)=O)cc1
AC50 [8]: 1.38 µM (active)
AC50 [9]: 1.7 µM (active)
AC50 [10]: 1.21 µM (active)
AC50 [11]: 1.12 µM (active)

COc1ccc2nc(-c3ccc(F)cc3)sc2c1
AC50 [12]: 2.55 µM (active)
AC50 [13]: > 52 µM (inactive)
AC50 [14]: 2.35 µM (active)
AC50 [15]: > 52 µM (inactive)
